According to the supplement of paper PMC10307832:

Experiments:
Assay in all cases: relative viability (nuclei count vs DMSO), 5 days (fraction); higher = more cells survive
BI-D1870 + Crizotinib = compound: CC(C)CCN1c2nc(Nc3cc(F)c(O)c(F)c3)ncc2N(C)C(=O)C1C [BI-D1870] + C[C@@H](Oc1cc(-c2cnn(C3CCNCC3)c2)cnc1N)c1c(Cl)ccc(F)c1Cl [Crizotinib] (partner 1 µM)
How it was run: (§1)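 Medians of duplicate plates are given as relative viability. That measure is the nuclei count in treated wells divided by the count in vehicle wells. Counts were taken on 4× images of lung cancer cell lines in 1536-well plates, 5 days after pin-tool dosing the day after seeding with one drug alone or a fixed anchor-drug dose plus five library-drug doses (not always all listed) in √10 steps.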

BI-D1870 + Decitabine = compound: CC(C)CCN1c2nc(Nc3cc(F)c(O)c(F)c3)ncc2N(C)C(=O)C1C [BI-D1870] + Nc1ncn([C@H]2C[C@H](O)[C@@H](CO)O2)c(=O)n1 [Decitabine] (partner 2 µM)
How it was run: as §1

Zebularine + Tozasertib = compound: O=c1ncccn1[C@@H]1O[C@H](CO)[C@@H](O)[C@H]1O [Zebularine] + Cc1cc(Nc2cc(N3CCN(C)CC3)nc(Sc3ccc(NC(=O)C4CC4)cc3)n2)n[nH]1 [Tozasertib] (partner 0.1 µM)
How it was run: as §1

Zebularine + Vorinostat = compound: O=c1ncccn1[C@@H]1O[C@H](CO)[C@@H](O)[C@H]1O [Zebularine] + O=C(CCCCCCC(=O)Nc1ccccc1)NO [Vorinostat] (partner 1 µM)
How it was run: as §1

Row | Cell Line | relative viability (BI-D1870 + Crizotinib; first compound 0.04 µM) | relative viability (BI-D1870 + Crizotinib; first compound 0.1265 µM) | relative viability (BI-D1870 + Crizotinib; first compound 0.4 µM) | relative viability (BI-D1870 + Crizotinib; first compound 1.265 µM) | relative viability (BI-D1870 + Crizotinib; first compound 4 µM) | relative viability (BI-D1870 + Decitabine; first compound 0.04 µM) | relative viability (BI-D1870 + Decitabine; first compound 0.1265 µM) | relative viability (BI-D1870 + Decitabine; first compound 0.4 µM) | relative viability (BI-D1870 + Decitabine; first compound 1.265 µM) | relative viability (BI-D1870 + Decitabine; first compound 4 µM) | relative viability (Zebularine + Tozasertib; first compound 1 µM) | relative viability (Zebularine + Tozasertib; first compound 3.162 µM) | relative viability (Zebularine + Tozasertib; first compound 10 µM) | relative viability (Zebularine + Tozasertib; first compound 31.62 µM) | relative viability (Zebularine + Tozasertib; first compound 100 µM) | relative viability (Zebularine + Vorinostat; first compound 1 µM) | relative viability (Zebularine + Vorinostat; first compound 3.162 µM) | relative viability (Zebularine + Vorinostat; first compound 10 µM) | relative viability (Zebularine + Vorinostat; first compound 31.62 µM) | relative viability (Zebularine + Vorinostat; first compound 100 µM)
1 | HCC-44 | 0.921 | 0.798 | 0.771 | 0.851 | 0.829 | 0.987 | 0.973 | 0.96 | 1.03 | 1.04 | 1.14 | 1.05 | 0.82 | 0.418 | 0.361 | 1.15 | 1.14 | 1.09 | 1.19 | 0.553
2 | HCC-827 | 0.97 | 0.912 | 0.95 | 0.947 | 0.821 | 0.333 | 0.322 | 0.306 | 0.365 | 0.402 | 0.417 | 0.445 | 0.306 | 0.373 | 0.196 | 1.04 | 0.811 | 0.77 | 0.478 | 0.361
3 | NCI-H1623 | – | – | – | – | – | – | – | – | – | – | 0.513 | 0.437 | 0.39 | 0.535 | 0.389 | – | – | – | – | –
4 | NCI-H2347 | 0.812 | 0.674 | 0.7 | 0.662 | 0.577 | 0.671 | 0.656 | 0.619 | 0.657 | 0.627 | 0.632 | 0.482 | 0.51 | 0.405 | 0.309 | 0.608 | 0.653 | 0.457 | 0.431 | 0.387
5 | PC-14 | 1.03 | 0.909 | 0.797 | 0.923 | 0.768 | 0.203 | 0.148 | 0.278 | 0.198 | 0.223 | 0.479 | 0.513 | 0.1 | 0.0922 | 0.0781 | 0.756 | 0.439 | 0.214 | 0.154 | 0.0885
6 | NCI-H1651 | 0.91 | 0.821 | 0.821 | 0.939 | 0.872 | 0.615 | 0.592 | 0.537 | 0.64 | 0.617 | 0.869 | 0.679 | 0.389 | 0.623 | 0.455 | 0.637 | 0.537 | 0.501 | 0.523 | 0.46
7 | HARA | 1.15 | 0.941 | 0.994 | 1.24 | 0.922 | 0.513 | 0.527 | 0.568 | 0.683 | 0.684 | 0.105 | – | – | 0.0886 | 0.0769 | 0.613 | 0.541 | – | 0.323 | 0.213
8 | NCI-H1650 | 0.984 | 0.905 | 0.936 | 0.777 | 0.801 | 0.405 | 0.43 | 0.554 | 0.572 | 0.589 | 0.509 | 0.308 | 0.325 | 0.361 | 0.341 | 0.645 | 0.57 | 0.506 | 0.748 | 0.373
9 | NCI-H1395 | – | – | – | – | – | 0.68 | 0.671 | 0.707 | 0.738 | 0.718 | 0.72 | 0.707 | 0.647 | 0.501 | 0.479 | 0.7 | 0.753 | 0.661 | 0.655 | 0.515
10 | LU99A | 0.692 | 0.539 | 0.552 | 0.547 | 0.508 | 0.883 | 0.814 | 0.898 | 0.837 | 0.725 | 0.296 | 0.276 | 0.239 | 0.261 | 0.159 | 0.536 | 0.513 | 0.414 | 0.379 | 0.174
11 | NCI-H1355 | 1.12 | 0.985 | 1.1 | 1.08 | 1.11 | 0.363 | 0.31 | 0.356 | 0.412 | 0.394 | 0.56 | 0.516 | 0.484 | 0.328 | 0.34 | 0.692 | 0.585 | 0.479 | 0.544 | 0.372
12 | HCC-78 | 0.365 | 0.318 | 0.309 | 0.295 | 0.245 | 0.755 | 0.774 | 0.791 | 0.727 | 0.746 | 0.423 | 0.429 | 0.219 | 0.278 | 0.259 | 0.535 | 0.462 | – | 0.444 | 0.337
13 | NCI-H1563 | 0.878 | 0.893 | 0.842 | 0.905 | 0.905 | – | – | – | – | – | – | – | – | – | – | – | – | – | – | –
14 | HCC-15 | 0.919 | 0.733 | 0.74 | 0.81 | 0.594 | 0.674 | 0.623 | 0.627 | 0.72 | 0.465 | 0.308 | 0.414 | 0.339 | 0.386 | 0.179 | 0.986 | 0.9 | 0.665 | 0.759 | 0.436
15 | EKVX | 0.929 | 0.986 | 0.92 | 0.941 | 0.816 | 0.328 | 0.309 | 0.374 | 0.436 | 0.39 | 0.44 | 0.409 | 0.3 | 0.374 | 0.335 | 0.772 | 0.745 | – | 0.819 | 0.635
